This note sets out measurements from patent US20190134005A1 (BioMarin Pharmaceutical Inc., priority 2016, published 2019).

The assay deals with T1, human CGT (Homo sapiens, UniProt Q16880).
T1 sequence (Q16880 21-541): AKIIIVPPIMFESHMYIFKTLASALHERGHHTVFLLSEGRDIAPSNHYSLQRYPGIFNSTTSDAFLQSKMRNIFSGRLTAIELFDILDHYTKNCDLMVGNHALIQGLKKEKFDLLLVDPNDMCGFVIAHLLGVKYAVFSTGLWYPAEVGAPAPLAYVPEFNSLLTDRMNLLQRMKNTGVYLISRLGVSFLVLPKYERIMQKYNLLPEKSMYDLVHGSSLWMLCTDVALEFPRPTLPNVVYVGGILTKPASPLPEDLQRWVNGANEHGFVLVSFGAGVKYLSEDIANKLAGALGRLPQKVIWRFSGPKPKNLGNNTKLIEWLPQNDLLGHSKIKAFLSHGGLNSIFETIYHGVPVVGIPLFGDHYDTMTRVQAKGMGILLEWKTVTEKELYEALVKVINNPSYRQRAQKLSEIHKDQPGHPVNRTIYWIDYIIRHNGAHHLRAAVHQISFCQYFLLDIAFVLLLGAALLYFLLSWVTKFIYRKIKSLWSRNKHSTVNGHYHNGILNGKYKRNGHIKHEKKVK
Kind of assay: Assay 1: CGT Enzymatic Assay (RapidFire/MS/MS, 0.01% Tween 80). The format is biochemical. Particulars: Table 1, Compounds of Formula (I) and Formula (II), CGT enzymatic assay, read-out: IC50.

The mark [1] stands for this setting: C6-NBD-dihydro-galactosylceramide readout.

Like-named read-outs stand apart in the source and are kept apart here.

What is called IC50 is the concentration that inhibits the measured activity by half. For `O=C1N(c2ccc(Cl)cc2)C2(CCC2)C(O)(c2cccc(OC(F)(F)F)c2)N1c1ccccc1` (centres unmarked) [Example 332, 5-(4-chlorophenyl)-8-hydroxy-7-phenyl-8-(3-(trifluoromethoxy)phenyl)-5,7-diazaspiro[3.4]octan-6-one], the half-inhibitory concentration (IC50) under setting [1] is below 1000 nM. With `CN(C)c1cccc(C2(O)CN(c3ccc(Br)cc3)C(=O)N2c2ccc(Br)cc2)c1` (centres unmarked) [Compound 125, 1,3-bis(4-bromophenyl)-4-(3-(dimethylamino)phenyl)-4-hydroxyimidazolidin-2-one], the concentration for half-maximal inhibition (IC50) was above 50000 nM. As for `CC1(C)N(c2ccc(Cl)cc2)C(=O)N(c2ccc(Cl)cc2)C1(O)c1cccc(OC(F)(F)F)c1` (centres unmarked) [Compound 133, 1,3-bis(4-chlorophenyl)-4-hydroxy-5,5-dimethyl-4-(3-(trifluoromethoxy)phenyl)imidazolidin-2-one], the 50% inhibitory concentration (IC50) was below 1000 nM.

With `CC#Cc1cccc(C2(O)[C@@H](C)N(c3ccc(Cl)cc3)C(=O)N2c2ccc(Cl)cc2)c1` (stereo partly drawn) [Compound 103-2, (5R)-1,3-bis(4-chlorophenyl)-4-hydroxy-5-methyl-4-(3-(prop-1-yn-1-yl)phenyl)imidazolidin-2-one], the IC50 was below 1000 nM. For `CCC[C@@H]1N(c2ccc(Cl)cc2)C(=O)N(c2ccc(Cl)cc2)C1(O)c1cccc(OC(F)(F)F)c1` (stereo partly drawn) [Compound 91-1, (5S)-1,3-bis(4-chlorophenyl)-4-hydroxy-5-propyl-4-(3-(trifluoromethoxy)phenyl)imidazolidin-2-one], the IC50 was below 1000 nM. With `CC(C)c1c(-c2ccccc2)n(-c2ccc(Br)cc2)c(=O)n1-c1ccc(Br)cc1` [Compound 267, 1,3-bis(4-bromophenyl)-4-isopropyl-5-phenyl-1,3-dihydro-2H-imidazol-2-one], the IC50 under setting [1] is below 1000 nM.

For `CCC[C@H]1N(c2ccc(Cl)cc2)C(=O)N(c2ccc(Cl)cc2)C1(O)c1cccc(Cl)c1` (stereo partly drawn) [Compound 114-2, (5R)-4-(3-chlorophenyl)-1,3-bis(4-chlorophenyl)-4-hydroxy-5-propylimidazolidin-2-one], the concentration for half-maximal inhibition (IC50) is below 1000 nM. Take `Cc1cccc([C@]2(C)C(O)N(c3ccc(Cl)cc3)C(=O)N2c2ccc(Cl)cc2)c1` (single isomer, unassigned) [Example 222-2]: the IC50 is below 1000 nM. As for `C[C@]1(C(F)(F)F)N(c2ccc(Cl)cc2)C(=O)N(c2ccc(Cl)cc2)C1(O)c1cc(C#N)cc(C#N)c1` (stereo partly drawn) [Example 331-1, 5-((5S)-1,3-bis(4-chlorophenyl)-4-hydroxy-5-methyl-2-oxo-5-(trifluoromethyl)imidazolidin-4-yl)isophthalonitrile], the half-inhibitory concentration (IC50) under setting [1] was below 1000 nM. As for `CCC1N(c2ccc(Cl)cc2)C(=O)N(c2ccc(Cl)cc2)C1(O)c1cccc(Cl)c1` (centres unmarked) [Compound 81, 4-(3-chlorophenyl)-1,3-bis(4-chlorophenyl)-5-ethyl-4-hydroxyimidazolidin-2-one], the IC50 is below 1000 nM. On the same count and under the same terms, next, `CCCc1c(-c2cccc(CC)c2)n(-c2ccc(Cl)cc2)c(=O)n1-c1ccc(Cl)cc1` [Compound 244, 1,3-bis(4-chlorophenyl)-4-(3-ethylphenyl)-5-propyl-1,3-dihydro-2H-imidazol-2-one]: 1000 to 10000 nM; `O=C1N(c2ccc(Br)cc2)C(C2CC2)C(O)(c2ccccc2)N1c1ccc(Br)cc1` (centres unmarked) [Compound 115, 1,3-bis(4-bromophenyl)-5-cyclopropyl-4-hydroxy-4-phenylimidazolidin-2-one]: below 1000 nM. Take `CCC1N(c2ccc(Br)cc2)C(=O)N(c2ccc(Br)cc2)C1(O)c1cccc(C(F)(F)F)c1` (centres unmarked) [Compound 67, 1,3-bis(4-bromophenyl)-5-ethyl-4-hydroxy-4-(3-(trifluoromethyl)phenyl)imidazolidin-2-one]: the concentration for half-maximal inhibition (IC50) was below 1000 nM.

Turning to `N#Cc1ccc(N2C(=O)N(c3ccc(Cl)cc3)C3(COC3)C2(O)c2cccc(OC(F)(F)F)c2)cc1` (centres unmarked) [Compound 274, 4-(5-(4-chlorophenyl)-8-hydroxy-6-oxo-8-(3-(trifluoromethoxy)phenyl)-2-oxa-5,7-diazaspiro[3.4]octan-7-yl)benzonitrile], the IC50 under setting [1] is below 1000 nM.
